US11000033B2, “Ketone or oxime compound, and herbicide” (NISSAN CHEMICAL CORPORATION, priority 2014, dated 2021)

Experiments:
Assay type in all cases: in vivo
rice = assay: Test Example 4: effect on crop by soil treatment (symbol b); conditions: application herbicide amount 320 g/ha
Method in brief: (§1)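 Steps: fill box with sterilized diluvial soil; sow seed spot-like; cover with ~1.5 cm soil; grow in greenhouse (25° C. to 30° C.).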

[1] = system: Echinochloa oryzacola Vasing.; assay: Test Example 1: herbicidal activity, application before weed generation in submerged conditions (symbol A); conditions: application herbicide amount 320 g/ha
Method in brief: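 Ratings (5: ≥90%, near complete withering; 4: 70–<90%; 3: 40–<70%; 2: 20–<40%; 1: 5–<20%; 0: ≤5%) were assigned 3 weeks after the diluted emulsion was applied to the water surface of freshly sown, submerged pots.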

[2] = system: Echinochloa crus-galli var. crus-galli; assay: Test Example 4: herbicidal effect by soil treatment (symbol H); conditions: application herbicide amount 320 g/ha
Method in brief: (§2)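 Seeds were sown in sterilized diluvial soil, covered with about 1.5 cm of soil, and the soil surface was sprayed with a water-diluted emulsion of the compound at a predetermined rate. Plants grew in a greenhouse at 25° C. to 30° C.; effects were scored visually 3 weeks after application.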

Stellaria media [3] = assay: Test Example 4: herbicidal effect by soil treatment (symbol P); conditions: application herbicide amount 320 g/ha
Method in brief: as §2

Lolium multiflorum Lam. [4] = assay: Test Example 4: herbicidal effect by soil treatment (symbol K); conditions: application herbicide amount 320 g/ha
Method in brief: as §2

Veronica persica = assay: Test Example 4: herbicidal effect by soil treatment (symbol R); conditions: application herbicide amount 320 g/ha
Method in brief: as §2

Apera spica-venti [5] = assay: Test Example 5: herbicidal effect by foliage application, plastic box (symbol L); conditions: 320 g/ha, 3 weeks after application
Method in brief: (§3)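 Effect is rated 3 weeks after a foliar spray of water-diluted emulsion concentrate at a predetermined herbicide amount. Plants had grown 14 days in a 25° C. to 30° C. greenhouse from seed in sterilized diluvial soil.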

Apera spica-venti [6] = assay: Test Example 4: herbicidal effect by soil treatment (symbol L); conditions: application herbicide amount 320 g/ha
Method in brief: as §2

Avena fatua = assay: Test Example 4: herbicidal effect by soil treatment (symbol I); conditions: application herbicide amount 320 g/ha
Method in brief: as §2

Lolium multiflorum Lam. [7] = assay: Test Example 5: herbicidal effect by foliage application, plastic box (symbol K); conditions: 320 g/ha, 3 weeks after application
Method in brief: as §3

[8] = system: Echinochloa crus-galli var. crus-galli; assay: Test Example 5: herbicidal effect by foliage application, plastic box (symbol H); conditions: 320 g/ha, 3 weeks after application
Method in brief: as §3

Digitaria ciliaris = assay: Test Example 4: herbicidal effect by soil treatment (symbol F); conditions: application herbicide amount 320 g/ha
Method in brief: as §2

transplanted rice plant = assay: Test Example 1: effect on crop, application before weed generation in submerged conditions (symbol a); conditions: application herbicide amount 320 g/ha
Method in brief: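 Alluvial soil pots flooded to 4 cm water, sown with Echinochloa oryzacola, Scirpus juncoides and Monochoria vaginalis, then transplanted with 2.5 leaf stage rice seedlings; pre-emergence application. Greenhouse 25° C. to 30° C.; scored 0–5 by herbicidal ratio 3 weeks after application.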

rapeseed = assay: Test Example 4: effect on crop by soil treatment (symbol g); conditions: application herbicide amount 320 g/ha
Method in brief: as §1

Stellaria media [9] = assay: Test Example 5: herbicidal effect by foliage application, plastic box (symbol P); conditions: 320 g/ha, 3 weeks after application
Method in brief: as §3

soybean = assay: Test Example 4: effect on crop by soil treatment (symbol d); conditions: application herbicide amount 320 g/ha
Method in brief: as §1

Monochoria vaginalis = assay: Test Example 2: herbicidal activity, application during weed generation in submerged conditions (symbol C); conditions: Table 23; application herbicide amount 320 g/ha; grade 0-5 by criteria of Test Example 1
Method in brief: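 Treatment timing was the one- to two-leaf stage, with diluted emulsifiable compound dropped onto the paddy water (depth 4 cm) over alluvial soil. All three species grew from a mixed sowing in a 25° C. to 30° C. greenhouse. Injury was judged by eye 3 weeks on.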

Chenopodium album = assay: Test Example 4: herbicidal effect by soil treatment (symbol O); conditions: application herbicide amount 320 g/ha
Method in brief: as §2

Structure (SMILES)	b: directly sowed rice plant, effect on crop grade (rice)	Herbicidal effect grade, A: Echinochloa oryzacola Vasing. [1]	H: Echinochloa crus-galli var. crus-galli, herbicidal effect grade [2]	P: Stellaria media, herbicidal effect grade (Stellaria media [3])	K: Lolium multiflorum Lam., herbicidal effect grade (Lolium multiflorum Lam. [4])	R: Veronica persica, herbicidal effect grade (Veronica persica)	L: Apera spica-venti, herbicidal effect grade (Apera spica-venti [5])	L: Apera spica-venti, herbicidal effect grade (Apera spica-venti [6])	I: Avena fatua, herbicidal effect grade (Avena fatua)	K: Lolium multiflorum Lam., herbicidal effect grade (Lolium multiflorum Lam. [7])	H: Echinochloa crus-galli var. crus-galli, herbicidal effect grade [8]	F: Digitaria ciliaris, herbicidal effect grade (Digitaria ciliaris)	Effect grade on crop, a: transplanted rice plant (transplanted rice plant)	g: rapeseed, effect on crop grade (rapeseed)	P: Stellaria media, herbicidal effect grade (Stellaria media [9])	d: soybean, effect on crop grade (soybean)	Herbicidal effect grade, C: Monochoria vaginalis (Monochoria vaginalis)	O: Chenopodium album, herbicidal effect grade (Chenopodium album)
CCOC(=O)C(C(=O)Cc1ccccc1)C1CC(O)=C(c2c(C)cc(C)cc2C)C1=O (stereo not drawn) [2-011]	0 (Herbicidal ratio of 5% or lower (almost no effect))	0 (Herbicidal ratio of 5% or lower (almost no effect))	0 (Herbicidal ratio of 5% or lower (almost no effect))	0 (Herbicidal ratio of 5% or lower (almost no effect))	0 (Herbicidal ratio of 5% or lower (almost no effect))	0 (Herbicidal ratio of 5% or lower (almost no effect))	0 (Herbicidal ratio of 5% or lower (almost no effect))	0 (Herbicidal ratio of 5% or lower (almost no effect))	0 (Herbicidal ratio of 5% or lower (almost no effect))	2 (Herbicidal ratio of 20% or higher and lower than 40%)	2 (Herbicidal ratio of 20% or higher and lower than 40%)	0 (Herbicidal ratio of 5% or lower (almost no effect))	0 (Herbicidal ratio of 5% or lower (almost no effect))	0 (Herbicidal ratio of 5% or lower (almost no effect))	0 (Herbicidal ratio of 5% or lower (almost no effect))	0 (Herbicidal ratio of 5% or lower (almost no effect))	0 (Herbicidal ratio of 5% or lower (almost no effect))	0 (Herbicidal ratio of 5% or lower (almost no effect))
CCOC(=O)C(C(=O)CC1CC1)C1CC(O)=C(c2c(C)cc(C)cc2C)C1=O (stereo not drawn) [2-025]	5 (Herbicidal ratio of 90% or more (almost completely withered))	3 (Herbicidal ratio of 40% or higher and lower than 70%)	4 (Herbicidal ratio of 70% or higher and lower than 90%)	0 (Herbicidal ratio of 5% or lower (almost no effect))	4 (Herbicidal ratio of 70% or higher and lower than 90%)	0 (Herbicidal ratio of 5% or lower (almost no effect))	3 (Herbicidal ratio of 40% or higher and lower than 70%)	0 (Herbicidal ratio of 5% or lower (almost no effect))	0 (Herbicidal ratio of 5% or lower (almost no effect))	5 (Herbicidal ratio of 90% or more (almost completely withered))	4 (Herbicidal ratio of 70% or higher and lower than 90%)	4 (Herbicidal ratio of 70% or higher and lower than 90%)	2 (Herbicidal ratio of 20% or higher and lower than 40%)	0 (Herbicidal ratio of 5% or lower (almost no effect))	0 (Herbicidal ratio of 5% or lower (almost no effect))	0 (Herbicidal ratio of 5% or lower (almost no effect))	–	0 (Herbicidal ratio of 5% or lower (almost no effect))
CON=C(C)CC1CC(O)=C(c2c(C)cc(C(C)=O)cc2C)C1=O (stereo not drawn) [6-026]	5 (Herbicidal ratio of 90% or more (almost completely withered))	1 (Herbicidal ratio of 5% or higher and lower than 20%)	1 (Herbicidal ratio of 5% or higher and lower than 20%)	0 (Herbicidal ratio of 5% or lower (almost no effect))	1 (Herbicidal ratio of 5% or higher and lower than 20%)	0 (Herbicidal ratio of 5% or lower (almost no effect))	3 (Herbicidal ratio of 40% or higher and lower than 70%)	0 (Herbicidal ratio of 5% or lower (almost no effect))	0 (Herbicidal ratio of 5% or lower (almost no effect))	5 (Herbicidal ratio of 90% or more (almost completely withered))	5 (Herbicidal ratio of 90% or more (almost completely withered))	4 (Herbicidal ratio of 70% or higher and lower than 90%)	3 (Herbicidal ratio of 40% or higher and lower than 70%)	0 (Herbicidal ratio of 5% or lower (almost no effect))	0 (Herbicidal ratio of 5% or lower (almost no effect))	0 (Herbicidal ratio of 5% or lower (almost no effect))	–	0 (Herbicidal ratio of 5% or lower (almost no effect))
CC#Cc1cc(C)c(C2=C(O)CC(CC(C)=NOC)C2=O)c(CC)c1 (mixture of isomers) [6-006]	5 (Herbicidal ratio of 90% or more (almost completely withered))	5 (Herbicidal ratio of 90% or more (almost completely withered))	5 (Herbicidal ratio of 90% or more (almost completely withered))	0 (Herbicidal ratio of 5% or lower (almost no effect))	5 (Herbicidal ratio of 90% or more (almost completely withered))	2 (Herbicidal ratio of 20% or higher and lower than 40%)	3 (Herbicidal ratio of 40% or higher and lower than 70%)	5 (Herbicidal ratio of 90% or more (almost completely withered))	4 (Herbicidal ratio of 70% or higher and lower than 90%)	4 (Herbicidal ratio of 70% or higher and lower than 90%)	4 (Herbicidal ratio of 70% or higher and lower than 90%)	5 (Herbicidal ratio of 90% or more (almost completely withered))	5 (Herbicidal ratio of 90% or more (almost completely withered))	4 (Herbicidal ratio of 70% or higher and lower than 90%)	–	0 (Herbicidal ratio of 5% or lower (almost no effect))	1 (Herbicidal ratio of 5% or higher and lower than 20%)	0 (Herbicidal ratio of 5% or lower (almost no effect))
